# Tested on: herpes simplex I
# Test: Topical treatment of herpes simplex I / cold sores with a neomycin B composition
# Type: in vivo
# Settings: between 3.5 and 5 mg/g neomycin B combined with pramoxine hydrochloride in petroleum jelly
# Description: Example 2: This embodiment of the invention is a compound similar to that disclosed in Example 1, except that it is specifically targeted to the treatment of herpes simplex I and the prevention of physiological manifestations of herpes simplex I (e.g., cold sores). […] However, for longer-term use or storage, preservatives like methylparaben are utilized to avoid contamination, and the ingredients preferably comprise an emulsion or suspension to distribute evenly the physiologically active ingredients.
smiles,measurement,value
NC[C@@H]1O[C@H](O[C@H]2[C@@H](O)[C@H](O[C@@H]3[C@@H](O)[C@H](N)C[C@H](N)[C@H]3O[C@H]3O[C@H](CN)[C@@H](O)[C@H](O)[C@H]3N)O[C@@H]2CO)[C@H](N)[C@@H](O)[C@@H]1O [neomycin B],"outcome of the experiment (treatment of herpes simplex I and prevention of its manifestations, e.g. cold sores)",ultimately effective

# From patent US20050143328A1, “COMPOSITION AND TREATMENT FOR ENVELOPE VIRUS INFECTIONS” (priority 2003, published 2005)
